Source: patent publication US9512139B2, “Conformationally constrained, fully synthetic macrocyclic compounds” (POLYPHOR AG, priority 2009, dated 2016)

Columns and labels:
[1] = target: T1, Prostaglandin F (FP) Receptor (Homo sapiens, UniProt P43088); experiment: Ca2+ assay (FLIPR) for the GPCR prostaglandin F (FP) receptor, agonist and antagonist mode; type: cell-based
T1 construct: host or cells: Ca2+ optimized hematopoietic cell lines (rat)
Method: Biological and Pharmacological Methods 1. Ca^2+ Assays for the GPCRs Motilin Receptor, Prostaglandin F (FP) Receptor, 5-hydroxytryptamine 2B (5-HT2B) Receptor, and Purinoreceptor P2Y1
Assays were performed using on a FLIPR^TETRA fluorometric imaging plate reader (Molecular Devices) with ScreenWorks Version 2 (Molecular Devices) as device operating and data analysis software.
Dose dependent agonist and antagonist activities were determined. Percentage activation and percentage inhibition values were determined.
Percentage activation was determined upon initial addition of the sample compounds followed by 10 minutes incubation at 25° C. Following compound incubation, reference agonists were added at EC80 to determine percentage inhibition.
Reference agonists were purchased from reputable commercial vendors and prepared according to each ligand's specifications. All handling of ligands were done to ensure proper control throughout the experiments.
Example compounds were weighed on a Microbalance (Mettler MX5) and dissolved in 100% DMSO to a final concentration of 2.5 mM and subsequently diluted into the assay buffer.
The Assay buffer was a supplemented HBSS (Hank's Balanced Salt Solution). HBSS was supplemented with 20 mM HEPES (4-(2-hydroxyethyl)-piperazin-1-ethansulfonic acid) and 2.5 mM Probenecid (Sigma P8761).
GPCR assays were performed using Ca^2+ optimized hematopoietic cell lines (rat) with cultures never exceeding 90% confluency. Cells were harvested and seeded (from cultures at less than 90% confluency) at 50000 cells/well for a 96-well plate (12500 cells/well for 384). After seeding, the assay plates were incubated for forty-five (45) minutes at room temperature. After room temperature incubation, the assay plates were incubated at 37° C. 5% CO2 for 24 hours prior to assaying.
All GPCR assays were performed using Fluo-8 Ca^2+ dye. Ca^2+ dye was prepared at 1× dye concentration in GPCR assay buffer. After 24 hours of incubation, cells were washed with GPCR assay buffer, and then Ca^2+-dye (100 μL/well) was added.
The plates were incubated for 90 minutes at 30° C. 5% CO2 prior to FLIPR assay.
Compound plates were prepared to add 50 μL/well during the agonist assay mode. During the FLIPR assay, 50 μL/well from the compound plate was diluted 3-fold into the existing 100 μL/well from the dye loading step. Therefore all compounds were prepared as 3× the final concentration desired in the assay.
After completion of the first single addition assay run, assay plate was removed from the FLIPR Tetra and placed at 25° C. for seven (7) minutes before antagonist assay.
Using the EC80 values determined during the agonist assay, all pre-incubated sample compound and reference antagonist (if applicable) wells were stimulated at the EC80 of the reference agonist. As reference ligands for the first three assays their obvious natural ligands motilin, prostaglandin F2α, and serotonin (5-HT, 5-Hydroxytryptamine) were used; and for the P2Y1 assay 2MeSATP (2-methyl-thio-adeno-sine 5′-triphosphate, i.e. (2R,3S,4R)-5-(6-amino-2-methylsulfanyl-purin-9-yl)-3,4-dihydroxy-tetrahydrofuran-2-yl]methyl (hydroxy-phosphonooxy-phosphoryl)hydrogen phosphate) was applied.
After the addition of the reference agonist fluorescence was monitored for 180 sec using FLIPR Tetra.
Data Analysis and Results:
From the FLIPR data, with negative control correction enabled, the maximum statistic for each well was exported and percentage activation relative to Emax control was calculated.

in vitro [2] = type: in vitro ADME, human; conditions: human, plasma, 10 µM
in vitro [3] = type: in vitro ADME, mouse; conditions: both, CD-1, mouse, plasma, 10 µM
[4] = Metabolic stability assay, human microsomes; type: in vitro ADME; conditions: both, human, microsomes, 10 µM
Method: (§1) 4. Plasma and Metabolic Stability Assays
(§2) The assays were conducted according to literature precedents (F. P. Guengerich, Analysis and Characterization of Enzymes; in: Principles and Methods of Toxicology; A. W. Hayes (Ed.) Raven Press: New York, 1989, 777-813; R. Singh et al., In vitro metabolism of a potent HIV-protease inhibitor (141W94) using rat, monkey and human liver S9, Rapid Commun. Mass Spectrom. 1996, 10, 1019-1026).
(§3) Metabolic Stability Assay
(§4) Microsomes from a human 50 donor mixed gender pool and 1:1 mixtures of microsomes from CD-1 mouse single-gender pools are purchased from Celsis (Belgium). The enzymatic reaction is performed in a buffer containing an NADPH regeneration system and microsomes with the following end concentrations: 100 mM potassium phosphate buffer (all from Sigma), 1 mg/mL glucose-6-phosphate, 1 mg/mL β-nicotinamide adenine dinucleotide phosphate (NADP), 0.65 mg/mL magnesium chloride, 0.8 units/mL of glucose-6-phosphate dehydrogenase (prediluted with 5 mM citrate buffer), 10 μM compound and 1 mg/ml microsomal protein. Compounds are incubated at 37° C. in duplicates and samples are taken after 0, 20 and 60 minutes. After acetonitrile precipitation (2 volumes) and HPLC/MS/MS analysis metabolic turnover is expressed in % of the initial 0 minutes value and half life T½ (min) is calculated. Verapamil for human and propranolol for mouse are used as reference and are assayed with every experimental set.

[5] = Metabolic stability assay, CD-1 mouse microsomes; type: in vitro ADME; conditions: both, CD-1, mouse, microsomes, 10 µM
Method: as §1, §2, §3, §4
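For Plasma Stability 240 min mouse [% remain.] in this document: sodium citrate stabilized mouse plasma, parent compound quantified by HPLC/MS/MS relative to its peak area at time zero, run in triplicate.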
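For Plasma Stability T½ [min] mouse in this document: sodium citrate stabilized mouse plasma, parent compound quantified by HPLC/MS/MS relative to its peak area at time zero, run in triplicate.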

T1 sequence (P43088 whole entry): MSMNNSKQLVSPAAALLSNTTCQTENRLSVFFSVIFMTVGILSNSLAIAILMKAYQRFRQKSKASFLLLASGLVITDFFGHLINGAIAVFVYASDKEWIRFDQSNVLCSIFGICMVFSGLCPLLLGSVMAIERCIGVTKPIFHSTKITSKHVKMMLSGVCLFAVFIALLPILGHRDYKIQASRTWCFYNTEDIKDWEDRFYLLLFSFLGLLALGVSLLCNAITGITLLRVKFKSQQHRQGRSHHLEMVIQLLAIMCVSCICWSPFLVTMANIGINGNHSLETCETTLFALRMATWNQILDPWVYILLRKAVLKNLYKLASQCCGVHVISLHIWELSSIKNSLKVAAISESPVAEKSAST

CN1CCC[C@H](NC(=O)Cc2ccc3ccccc3c2)C(=O)N2C[C@@H](NC(=O)Cc3ccc4ccccc4c3)C[C@H]2COc2cccc(c2)C1=O [Ex. 186, N-[(4S,6S,10S)-14-methyl-10-{[2-(2-naphthyl)acetyl]amino}-9,15-dioxo-2-oxa-8,14-diazatricyclo[14.3.1.0^4,8]icosa-1(20),16,18-trien-6-yl]-2-(2-naphthyl)acetamide]
IC50 [1]: 1200 nM
inhibition at 10 µM [1]: 53%

CN(C)c1cccc(NC(=O)N[C@H]2C[C@H]3COc4cccc(c4)C(=O)NCCC[C@H](NC(=O)Cc4ccc5ccccc5c4)C(=O)N3C2)c1 [Ex. 386, N-[(4S,6S,10S)-6-({[3-(dimethylamino)anilino]carbonyl}amino)-9,15-dioxo-2-oxa-8,14-diazatricyclo[14.3.1.0^4,8]icosa-1(20),16,18-trien-10-yl]-2-(2-naphthyl)acetamide]
IC50 [1]: 2700 nM
inhibition at 10 µM [1]: 85%

O=C(Cc1ccc2ccccc2c1)N[C@H]1C[C@H]2COc3cccc(c3)C(=O)NCCC[C@H](NC(=O)OCc3ccccc3)C(=O)N2C1 [Ex. 388, benzyl N-[(4S,6S,10S)-6-{[2-(2-naphthyl)acetyl]amino}-9,15-dioxo-2-oxa-8,14-diazatricyclo[14.3.1.0^4,8]icosa-1(20),16,18-trien-10-yl]carbamate]
IC50 [1]: 320 nM
inhibition at 10 µM [1]: 99%

CCCCCCCCCC(=O)N[C@H]1CCCNC(=O)c2cccc(c2)OC[C@@H]2C[C@H](NC(=O)Cc3ccc4ccccc4c3)CN2C1=O [Ex. 391, N-[(4S,6S,10S)-6-{[2-(2-naphthyl)acetyl]amino}-9,15-dioxo-2-oxa-8,14-diazatricyclo[14.3.1.0^4,8]icosa-1(20),16,18-trien-10-yl]decanamide]
IC50 [1]: 250 nM
inhibition at 10 µM [1]: 93%

CCCCCCCCCC(=O)N[C@H]1CCCN(C)C(=O)c2cccc(c2)OC[C@@H]2C[C@H](NC(=O)Cc3ccc4ccccc4c3)CN2C1=O [Ex. 504, N-[(4S,6S,10S)-14-methyl-6-{[2-(2-naphthyl)acetyl]amino}-9,15-dioxo-2-oxa-8,14-diazatricyclo[14.3.1.0^4,8]icosa-1(20),16,18-trien-10-yl]decanamide]
IC50 [1]: 441 nM
inhibition at 10 µM [1]: 62%

Cc1cccc(NC(=O)N[C@H]2CCCN(C)C(=O)c3cccc(c3)OC[C@@H]3C[C@H](NC(=O)Cc4ccc5ccccc5c4)CN3C2=O)c1 [Ex. 506, N-[(4S,6S,10S)-14-methyl-9,15-dioxo-10-[(3-toluidinocarbonyl)amino]-2-oxa-8,14-diazatricyclo[14.3.1.0^4,8]icosa-1(20),16,18-trien-6-yl]-2-(2-naphthyl)acetamide]
IC50 [1]: 2200 nM
inhibition at 10 µM [1]: 55%

CN1CCC[C@H](NC(=O)Nc2cccc(N(C)C)c2)C(=O)N2C[C@@H](NC(=O)Cc3ccc4ccccc4c3)C[C@H]2COc2cccc(c2)C1=O [Ex. 507, N-[(4S,6S,10S)-10-({[3-(dimethylamino)anilino]carbonyl}amino)-14-methyl-9,15-dioxo-2-oxa-8,14-diazatricyclo[14.3.1.0^4,8]icosa-1(20),16,18-trien-6-yl]-2-(2-naphthyl)acetamide]
IC50 [1]: 1100 nM
inhibition at 10 µM [1]: 51%

CN1CCC[C@H](NC(=O)Cc2ccc3ccccc3c2)C(=O)N2C[C@@H](NC(=O)Nc3cccc(N(C)C)c3)C[C@H]2COc2cccc(c2)C1=O [Ex. 508, N-[(4S,6S,10S)-6-({[3-(dimethylamino)anilino]carbonyl}amino)-14-methyl-9,15-dioxo-2-oxa-8,14-diazatricyclo[14.3.1.0^4,8]icosa-1(20),16,18-trien-10-yl]-2-(2-naphthyl)acetamide]
IC50 [1]: 430 nM
inhibition at 10 µM [1]: 93%

CCCCCCCCCC(=O)N[C@H]1CCCN(C)C(=O)c2cccc(c2)OC[C@@H]2C[C@H](NC(=O)CCc3ccccc3)CN2C1=O [Ex. 509, N-[(4S,6S,10S)-14-methyl-9,15-dioxo-6-[(3-phenylpropanoyl)amino]-2-oxa-8,14-diazatricyclo[14.3.1.0^4,8]icosa-1(20),16,18-trien-10-yl]decanamide]
IC50 [1]: 2100 nM
inhibition at 10 µM [1]: 54%

CCCCCCCCCC(=O)N[C@H]1CCCN(C)C(=O)c2cccc(c2)OC[C@@H]2C[C@H](NC(=O)c3cccc(N4CCOCC4)c3)CN2C1=O [Ex. 510, N-[(4S,6S,10S)-14-methyl-6-[(3-morpholinobenzoyl)amino]-9,15-dioxo-2-oxa-8,14-diazatricyclo[14.3.1.0^4,8]icosa-1(20),16,18-trien-10-yl]decanamide]
IC50 [1]: 1500 nM
inhibition at 10 µM [1]: 42%

COc1cccc(NC(=O)N[C@H]2C[C@H]3COc4cccc(c4)C(=O)N(C)CCC[C@H](NC(=O)Cc4ccc5ccccc5c4)C(=O)N3C2)c1 [Ex. 513, N-[(4S,6S,10S)-6-{[(3-methoxyanilino)carbonyl]amino}-14-methyl-9,15-dioxo-2-oxa-8,14-diazatricyclo[14.3.1.0^4,8]icosa-1(20),16,18-trien-10-yl]-2-(2-naphthyl)acetamide]
IC50 [1]: 650 nM
inhibition at 10 µM [1]: 95%

CCCCCCCCCC(=O)N[C@H]1CCCN(C)C(=O)c2cccc(c2)OC[C@@H]2C[C@H](NC(=O)Cc3cccc(Oc4ccccc4)c3)CN2C1=O [Ex. 515, N-[(4S,6S,10S)-14-methyl-9,15-dioxo-6-{[2-(3-phenoxyphenyl)acetyl]amino}-2-oxa-8,14-diazatricyclo[14.3.1.0^4,8]icosa-1(20),16,18-trien-10-yl]decanamide]
IC50 [1]: 5100 nM
inhibition at 10 µM [1]: 32%

CN1CCC[C@H](NC(=O)CCCCCc2ccccc2)C(=O)N2C[C@@H](NC(=O)Cc3ccc4ccccc4c3)C[C@H]2COc2cccc(c2)C1=O [Ex. 516, N-[(4S,6S,10S)-14-methyl-6-([2-(2-naphthyl)acetyl]amino}-9,15-dioxo-2-oxa-8,14-diazatricyclo[14.3.1.0^4,8]icosa-1(20),16,18-trien-10-yl]-6-phenylhexanamide]
IC50 [1]: 590 nM
inhibition at 10 µM [1]: 97%

CN1CCC[C@H](N2CCN(S(C)(=O)=O)CC2)C(=O)N2C[C@@H](O)C[C@H]2COc2cccc(c2)C1=O [Ex. 583, (4S,6S,10S)-6-hydroxy-14-methyl-10-[4-(methylsulfonyl)piperazino]-2-oxa-8,14-diazatricyclo[14.3.1.0^4,8]icosa-1(20),16,18-triene-9,15-dione]
Plasma Stability T½ [min] hum (in vitro [2]): > 240 min
Plasma Stability 240 min hum [% remain.] (in vitro [2]; 4 h): 91 % remain.
Plasma Stability T½ [min] mouse (in vitro [3]): > 240 min
Plasma Stability 240 min mouse [% remain.] (in vitro [3]; 4 h): 83 % remain.
Metabolic Stability T½ [min] hum [4]: > 60 min
Metabolic Stability 60 min hum [% remain.] ([4]; 1 h): 100 % remain.
Metabolic Stability T½ [min] mouse [5]: > 60 min
Metabolic Stability 60 min mouse [% remain.] ([5]; 1 h): 95 % remain.
